Data on one compound can be found in patent publication US20230391808A1, “PHOSPHAPHENALENE-GOLD(I) COMPLEXES AS CHEMOTHERAPEUTIC AGENTS AGAINST GLIOBLASTOMA” (priority 2020, published 2023).

For data set [1], the system named is NCH82, NCH89, NCH125, and NCH210 cells. The experiment in a line: Wound-healing (scratch) assay, tumor cell migration. It is filed as cell-based, human. On the procedure:
Besides an increased tumor cell proliferation, a highly invasive cell growth drives malignancy of GBM. To obtain a more complete picture of the anti-cancer action of the compounds according to the invention, the effects of compound 4 on GBM cell invasion were investigated using a conventional wound-healing assay with NCH82, NCH89, NCH125, and NCH210 cells.
The results of the wound-healing assay are depicted in FIG. 2. […] The cells were imaged at 0 hours (t0) and at 24 hours (t1) after introducing the scrape. Cell migration was assessed by measuring cell-free areas at t0 and their reduction at t1.
To assess the effect of the drugs on cell migration in vitro cells were seeded in 6-well plates (5×10^5/Well) and left to attach. On the next day the cell monolayer was scraped in a straight line to create a “scratch” with a p200 pipet tip. […] Phase contrast images were acquired at 0 h and after 12 h of exposure to the respective drug concentration using a BX50 microscope with a SC30 camera (both Olympus, Tokyo, Japan). The cell-free areas at both time points were quantified and compared using the imaging software cellSens (Olympus, Tokyo, Japan).

The test system of a further data set is NCH82. The experiment in a line: Annexin V apoptosis assay (flow cytometry), NCH82. The following applies: drug concentration of 2 μM, 48 hour-incubation (FIG. 3B). It is filed as cell-based, human. On the procedure: (§1) Thus, after a 48 hour-incubation period with different concentrations of Compound 4, the conventional GBM cells and GSCs were analyzed by flow cytometry. Annexin V and propidium iodide (PI) were used as indicators for apoptosis/necrosis. In line with the obtained IC50 values listed in Table 2, NCH82 cells appeared to be the most sensitive GBM cell line.
To quantitate the extent of apoptosis and necrosis, either annexin V staining combined with DAPI or double labeling of cells with annexin V and propidium iodide (PI) was used. The double labeling allows the distinction between apoptotic (annexin V^pos/DAPI^neg or annexin V^pos/PI^neg) and necrotic (annexin V^pos/DAPI^pos or annexin V^pos/PI^pos) cells. […]
After treatment supernatant containing apoptotic and necrotic cells was collected, cells were harvested, washed, and up to 1×10^6 cells were incubated with FITC-conjugated annexin V antibody diluted in 1:1000 DAPI solution following manufactures instructions (#51-65874X, BD Bioscienes, Franklin Lakes, USA) or incubated with FITC-conjugated annexin V antibody and PI for 15 min following manufacturer instructions (#51-65974X, BD Biosciences, Franklin Lakes, USA). Cells were acquired by flow cytometry using a BD LSRII flow cytometer (BD Bioscienes, Franklin Lakes, USA) and analyzed by FlowJo Software v7.6.5 (TreeStar, Ahland, USA).

Another data set concerns NCH89. Kind of data set: Annexin V apoptosis assay (flow cytometry), NCH89. Format: cell-based, human. The protocol: (§2) It was further analyzed whether Compound 4 could sensitize GBM cells (NCH82 and NCH89) and GSCs (NCH421k, NCH644, and NCH660h) to apoptosis. The increase of apoptotic/necrotic cells with increasing concentrations of Compound 4 is illustrated in FIG. 3.
as §1
(§3) To quantitate the extent of apoptosis and necrosis, either annexin V staining combined with DAPI or double labeling of cells with annexin V and propidium iodide (PI) was used. The double labeling allows the distinction between apoptotic (annexin V^pos/DAPI^neg or annexin V^pos/PI^neg) and necrotic (annexin V^pos/DAPI^pos or annexin V^pos/PI^pos) cells. Cells were seeded in a 6-well plate (2.5×10^5/well) and left to attach overnight. Medium was replaced by fresh medium containing defined drug concentrations or compound solvent DMSO (untreated control) and incubated for 24 h. As positive control cells were treated with 1 μM of the apoptosis-inducing reagent staurosporin (#9953, Cell Signaling Technology, Danvas, USA). […]

Data set [2] has as its system GSCs (NCH421k, NCH644, and NCH660h). Kind of data set: Annexin V apoptosis assay (flow cytometry), GSCs. The following applies: 48 hour-incubation (FIG. 3C). It is filed as cell-based, human. On the procedure:
as §2, §1, §3

A short description of another data set: Solubility in solvents. It is filed as physicochemical. The source says: Importantly, all compounds 1-4 readily dissolved in DMSO/H2O mixtures 1:9. Compound 1 was the least soluble and started to precipitate at concentrations higher than 0.1 M.

On to `CC(=O)OCC1OC([S][Au][PH]2(c3ccccc3)c3cscc3-c3cccc4cccc2c34)C(OC(C)=O)C(OC(C)=O)C1OC(C)=O` (centres unmarked) [Compound 4], for which, in data set [1] (at least the corresponding IC50 concentrations, 24 hours), the “wound closure compared to untreated control cells” value is reported as “significantly decreased wound closure”. The wound closure entry in data set [1] (concentrations c(IC50)/2 and c(IC50)/10, 24 hours) is given as “not significantly affected”. For the same compound, the “induction of apoptosis, NCH82” value in the data set with NCH82 is given as “induced apoptosis in a high percentage of cells”. For the same compound, in the data set on NCH89 (1 μM, 2 μM, and 10 μM for 24 hours (FIG. 3A)), the “apoptotic/necrotic cells, NCH89” value was “dose-dependent increase of apoptotic/necrotic cells”. Further, in the data set with NCH89 (concentration of 2 μM, 48 hour-incubation (FIG. 3B)), the “cell death, NCH89” value is given as “no cell death”. Further, the “induction of apoptosis, GSCs” value in data set [2] is “induction of apoptosis could be demonstrated but to a lesser extent”. For the same compound, in “Solubility in solvents”, the “solubility in methanol, ethanol, DCM, CHCl3, Et2O and acetone” value is given as “soluble”; the “solubility in pentane and hexane” value is reported as “insoluble”.
